The target of one data set is hURAT1 (Homo sapiens (Human), UniProt Q96S37). In words: In vitro inhibition of 14C-uric acid absorption in HEK-293T cells stably expressing hURAT1. It is filed as cell-based. The method, then:
It was to test the in vitro inhibitory activity (IC50) of the compound on hURAT1.
The culture medium included: a DMEM culture medium+10% of fetal calf serum+500 μg/ml G418+1% of P/S. • (2) When the cells grew to 80% full, the culture medium was removed, PBS was added to clean the cells once, and then pancreatin-EDTA was added for digestion. The culture medium was added when the cells were subjected to wall removal, and subjected to blowing and beating to make the cells fall off. The cells were centrifuged and collected. The culture medium was added, and subjected to blowing and beating to form cell suspension. • (3) The cell density was adjusted to be 7×10^5/ml, then the cells were inoculated into a 96-well cell culture plate with white wall and transparent bottom according to the amount of 100 μL/well, and cultured for 12-24 h.
3.3 Preparation of compounds • (1) The compound was prepared into a mother solution with a concentration of 20 mM by DMSO, the mother solution was diluted to reach a concentration of 1 mM by DMSO, and then the solution was added into 96 wells. • (2) Quality control compounds were additionally arranged on the 96-well plate, so as to obtain a 100 x compound plate. • (3) The solutions in corresponding wells of another 96-well plate were diluted 50 times by the Cl-free HBSS buffer solution, so as to obtain a 2 x compound plate (plate 2). • (4) A buffer solution containing 0.1 μCi/ml 14C-uric acid at a density of 30 μL/well and a 2 x diluted compound at a density of 30 μL/well into a new 96-well plate, so as to obtain a 1 x compound plate (plate 1) for later use.
3.4 Absorption of ^14C-uric acid in cells stably expressing hURAT1 • (1) An absorption test may be performed after cells in the 96-well plate were cultured and adhered to the wall. • (2) The cells were washed once by the preheated buffer solution at a density of 200 μL/well. • (3) The cells in each well were completely absorbed, and then the corresponding compounds and 0.1 μCi/ml 14C-uric acid solution were immediately added at a density of 50 μL/well. • (4) The plate added with the compounds was incubated in an incubator at 37° C. for 5 min. • (5) 150 μL of ice-cold buffer solution was immediately added into each well to stop absorption. Each well was washed for three times with the buffer solution.

The next data set has as its target OAT1 (Homo sapiens (Human), UniProt Q4U2R8). Put plainly: Inhibitory effect on transporter OAT1.
The target of a further data set is OAT3 (Homo sapiens (Human), UniProt Q8TCC7). Put plainly: Inhibitory effect on transporter OAT3.
OAT3, sequence (Q8TCC7 whole entry): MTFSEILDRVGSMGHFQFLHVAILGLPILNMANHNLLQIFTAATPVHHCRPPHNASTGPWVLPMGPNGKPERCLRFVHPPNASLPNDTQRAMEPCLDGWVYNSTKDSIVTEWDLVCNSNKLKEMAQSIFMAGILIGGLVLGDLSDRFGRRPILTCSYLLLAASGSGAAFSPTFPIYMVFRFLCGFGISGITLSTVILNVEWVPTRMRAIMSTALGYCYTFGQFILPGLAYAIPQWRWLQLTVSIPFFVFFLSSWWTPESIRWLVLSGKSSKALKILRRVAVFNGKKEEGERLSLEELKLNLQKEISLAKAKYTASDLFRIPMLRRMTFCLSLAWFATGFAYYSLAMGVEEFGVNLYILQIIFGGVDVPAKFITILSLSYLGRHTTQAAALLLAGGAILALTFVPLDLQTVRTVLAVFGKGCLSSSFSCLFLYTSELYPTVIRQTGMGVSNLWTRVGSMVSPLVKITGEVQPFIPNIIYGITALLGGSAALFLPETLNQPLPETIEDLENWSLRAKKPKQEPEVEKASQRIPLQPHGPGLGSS
For another data set, the target named is OAT4 (Homo sapiens (Human), UniProt Q9NSA0). In words: Inhibitory effect on transporter OAT4.
OAT4, sequence (Q9NSA0 whole entry): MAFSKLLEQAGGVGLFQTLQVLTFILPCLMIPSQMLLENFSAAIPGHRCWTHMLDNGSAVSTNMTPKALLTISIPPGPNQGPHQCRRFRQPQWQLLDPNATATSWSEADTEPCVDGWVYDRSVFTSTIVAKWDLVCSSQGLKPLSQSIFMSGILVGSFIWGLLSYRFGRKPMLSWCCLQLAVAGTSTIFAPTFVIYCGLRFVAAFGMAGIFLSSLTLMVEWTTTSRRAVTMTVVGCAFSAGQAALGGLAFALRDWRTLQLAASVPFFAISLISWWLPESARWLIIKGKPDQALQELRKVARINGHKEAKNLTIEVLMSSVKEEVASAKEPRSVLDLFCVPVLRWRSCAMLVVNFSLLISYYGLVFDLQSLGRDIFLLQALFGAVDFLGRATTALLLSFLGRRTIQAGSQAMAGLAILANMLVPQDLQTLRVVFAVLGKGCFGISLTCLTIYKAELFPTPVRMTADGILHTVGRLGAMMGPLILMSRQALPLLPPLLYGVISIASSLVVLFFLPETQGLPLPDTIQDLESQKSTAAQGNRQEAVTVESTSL
For data set [1], the system named is rat model of hyperuricemia. In words: Rat model of hyperuricemia induced by oteracil potassium and hypoxanthine. It is filed as in vivo. As to conditions: P<0.05. The method, then:
Oteracil potassium was combined with hypoxanthine to induce a rat model of hyperuricemia for effective dose exploration and dose-effect relationship research. Oteracil potassium feed was adopted for feeding to induce the rat model of hyperuricemia for time-effect relationship, pathological state-based functional mechanism confirmation, and PK-PD researches.
In the experiment, the rat model of hyperuricemia was prepared by intragastric administration of hypoxanthine and intraperitoneal injection of oteracil potassium. The single intragastric administration dose of the compound shown in Formula 1 was set to be 5 mg/kg, 10 mg/kg, 20 mg/kg, and 40 mg/kg. The single intragastric administration dose of Lesinurad in the positive control groups was set to be 10 mg/kg, 20 mg/kg, 40 mg/kg, and 80 mg/kg. […] Moreover, the compounds had no significant effect on the renal coefficient, further verifying the good safety of this product at the effective dose.

[2] abbreviates: curve-fit parameter, hURAT1 inhibition, superscript 1 = plate1, 2 = plate2.

Where two headings read alike, the source gives them in different places.

hURAT1, sequence (Q96S37 whole entry): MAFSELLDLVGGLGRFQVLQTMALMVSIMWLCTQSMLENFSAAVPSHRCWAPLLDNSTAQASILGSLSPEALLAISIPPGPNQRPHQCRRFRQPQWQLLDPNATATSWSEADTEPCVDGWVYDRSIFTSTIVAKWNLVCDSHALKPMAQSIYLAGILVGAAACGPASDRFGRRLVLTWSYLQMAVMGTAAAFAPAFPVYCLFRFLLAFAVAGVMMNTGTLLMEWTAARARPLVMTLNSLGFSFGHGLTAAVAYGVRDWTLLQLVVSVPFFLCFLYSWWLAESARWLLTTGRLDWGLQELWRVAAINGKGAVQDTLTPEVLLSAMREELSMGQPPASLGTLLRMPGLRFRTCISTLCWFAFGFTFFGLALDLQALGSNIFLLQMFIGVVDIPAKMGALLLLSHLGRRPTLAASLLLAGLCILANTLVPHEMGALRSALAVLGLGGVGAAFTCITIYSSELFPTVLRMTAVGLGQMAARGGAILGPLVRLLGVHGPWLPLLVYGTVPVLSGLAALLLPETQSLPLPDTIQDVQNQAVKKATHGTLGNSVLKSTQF
OAT1, sequence (Q4U2R8 whole entry): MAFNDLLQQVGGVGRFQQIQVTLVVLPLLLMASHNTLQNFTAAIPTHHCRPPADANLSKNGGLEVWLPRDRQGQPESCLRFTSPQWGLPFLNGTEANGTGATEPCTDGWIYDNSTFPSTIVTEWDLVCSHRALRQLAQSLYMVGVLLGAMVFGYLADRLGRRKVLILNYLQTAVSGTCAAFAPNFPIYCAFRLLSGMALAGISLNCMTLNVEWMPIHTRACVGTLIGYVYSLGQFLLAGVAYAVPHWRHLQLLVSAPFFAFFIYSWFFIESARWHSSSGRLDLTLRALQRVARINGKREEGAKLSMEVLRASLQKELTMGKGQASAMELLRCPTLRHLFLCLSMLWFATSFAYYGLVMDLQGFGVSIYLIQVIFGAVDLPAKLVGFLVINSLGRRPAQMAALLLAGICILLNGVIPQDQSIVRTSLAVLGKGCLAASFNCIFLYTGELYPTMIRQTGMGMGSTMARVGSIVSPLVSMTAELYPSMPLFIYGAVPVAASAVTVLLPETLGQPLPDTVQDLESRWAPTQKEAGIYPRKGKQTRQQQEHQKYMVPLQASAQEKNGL
Method for OAT1: (§1) The IC50 of compounds on URAT1, OAT1, OAT3, and OAT4 was tested, thereby providing research data for clinical application and further development of drugs.
Method for OAT3: as §1
Method for OAT4: as §1

With `CCc1oc2ccccc2c1C(=O)c1cc(Br)c(O)c(Br)c1` [Benzbromarone], at hURAT1, the BOTTOM was determined as 6.1, the HILLSLOPE is 1.20 and the TOP is on record as 99.1.

As a reminder, the IC50 is the midpoint of a concentration-inhibition curve. Low readings indicate inhibition by little substance, high ones a need for much substance. On to `CC(C)(Sc1ccnc2ccc(C(F)(F)F)cc12)C(=O)NS(C)(=O)=O` [D], for which the IC50 against OAT1 is 12.7 µM; against OAT3, more than 100 µM.

Turning to `CC(C)(Sc1ccncc1-c1ccc(C#N)c2ccccc12)C(=O)O` [Verinuard, Verinurad], on hURAT1 (setting [2]), the BOTTOM is given as 0.00, the HILLSLOPE is 0.75 and the TOP came to 96.94. Besides, at hURAT1 (hURAT1, HEK-293T, 14C-uric acid, 5 min at 37° C., superscript 1 = plate1, 2 = plate2), it took 0.0545 µM to reach half-maximal inhibition (IC50).

`CCCN(CCC)S(=O)(=O)c1ccc(C(=O)O)cc1` [Probenecid]: at OAT4, the “inhibitory effect on drug transporter OAT4 (in words)” value is “a certain inhibitory effect”.

Consider `O=C(O)CSc1nnc(Br)n1-c1ccc(C2CC2)c2ccccc12` [Lesinurad], for which, in data set [1] (model rats, single intragastric dose 40 mg/kg, vs model control group), the “serum uric acid level” value is given as “significantly reduce”. In addition, in data set [1] (rats, single intragastric dose 80 mg/kg), the renal coefficient result is given as “increased significantly”.

The values above are taken from patent US20240116873A1, “QUINOLINE MERCAPTOACETATE SULFONAMIDE DERIVATIVE, INTERMEDIATE, PHARMACEUTICAL DERIVATIVE OR FORMULATION, AND PREPARATION METHOD AND USE THEREFOR” (JIANGSU CHIATAI QINGJIANG PHARMACEUTICAL CO., LTD., priority 2022, published 2024).
